Reference: patent US20170071208A1, “COMPOSITIONS FOR MOSQUITO CONTROL AND USES OF SAME” (Forrest Innovations Ltd., priority 2014, published 2017)

Legend:
Type in all cases: in vivo, Aedes aegypti
[1] = test system: Ae. aegypti mosquitoes (RJ strain); test: dsRNA treatment of larvae (soaking, or soaking plus feeding), then pyrethroid adulticide bottle bioassay of adult females
Experimental: (§1) Third instar larvae were treated (in groups of 100 larvae) in a final volume of 3 mL of dsRNA solution in autoclaved water (0.5 μg/μL for sodium channel (AAEL008297), PgP (AAEL010379) and Ago3 (AAEL007823) dsRNA, or 0.1 μg/μL for CYP9J26 (JF924909.1). The control group was kept in 3 ml sterile water only. Larvae were soaked in the dsRNA solutions for 24 hr at 27° C., and then transferred into new containers (300 larvae/1500 mL of chlorine-free tap water), which were also maintained at 27° C., and were provided 6 mg/100 mL lab dog/cat diet (Purina Mills) suspended in water as a source of food on a daily basis. As pupae developed, they were transferred to individual vials to await eclosion and sex sorting. For bioassays purpose only females up to five days old were used. See Flowchart 1, FIG. 1 for detailed explanation of this experiment.
After soaking in the dsRNA solutions for 24 hr at 27° C., the larvae were transferred into new containers (300 larvae/1500 mL of chlorine-free tap water), and were provided agarose cubes containing 300 μg of dsRNA once a day for a total of four days. The larvae were reared until adult stage. For bioassays purpose only females up to five days old are used. See Flowchart 2, FIG. 2 for detailed explanation of this experiment.
Bottles were prepared following the Brogdon and McAllister (1998) protocol [Brogdon and McAllister (1998) Emerg Infect Dis 4:605-613]. Fifteen-twenty non-blood-fed females from each site were introduced in 250 mL glass bottles impregnated with different concentrations of deltamethrin (Sigma-Aldrich) in 1 ml acetone. Each test consisted of four impregnated bottles and one control bottle. The control bottle contained acetone with no insecticide. At least three tests were conducted for each insecticide and population. Immediately prior to use, all insecticide solutions were prepared fresh from stock solutions. At 15, 30 and 45 min intervals, the number of live and dead mosquitoes in each bottle was recorded. The mortality criteria included mosquitoes with difficulties flying or standing on the bottle's surface. Mosquitoes that survived the appropriate dose for insecticide were considered to be resistant [Brogdon and McAllister (1998), supra].
Cubes of dsRNA-containing mosquito food were prepared as follows: First, 300 μg of dsRNA were mixed with 30 μg of Polyethylenimine 25 kD linear (Polysciences) in 200 μL of sterile water. Then, a suspension of ground mosquito larval food (6 grams/100 mL) was prepared with 2% agarose (Fisher Scientific). The food/agarose mixture was heated to 55° C. and 200 μL of the mixture was then transferred to the tubes containing 200 μL of dsRNA+PEI or water only (control). The mixture was then allowed to solidify into a gel. The solidified gel containing both the food and dsRNA was cut into small pieces (approximately 1 mm thick) using a razor blade, which were then used to feed mosquito larvae in water.

[2] = test system: sodium channel (AAEL008297) mRNA; test: qPCR analysis of sodium channel mRNA expression after dsRNA treatment
Experimental: as §1
Total RNA was extracted from groups of five Ae. aegypti fourth instar larvae and early adult male/female Ae. aegypti, using TRIzol (Invitrogen, Carlsbad, Calif., USA) according to the manufacturer's instructions. RNA was treated with amplification grade DNase I (Invitrogen) and 1 μg was used to synthesize cDNA using a First Strand cDNA Synthesis kit (Invitrogen). PCR products were purified using a QIAquick PCR purification kit (Qiagen). The MEGAscript RNAi kit (Ambion) was then used for in vitro transcription and purification of dsRNAs. See Flowchart 4, FIG. 4 for detailed explanation production off dsRNA.
(§2) Approximately 1000 ng first-strand cDNA obtained as described previously was used as template. The qPCR reactions were performed using SYBR® Green PCR Master Mix (Applied Biosystems) following the manufacturer's instructions. […] Raw quantification cycle (Cq) values normalized against those of the tubulin and S7 standards were then used to calculate the relative expression levels in samples using the 2^−ΔΔct method [Livak & Schmittgen, (2001) Methods. […]

[3] = test system: P-glycoprotein (AAEL010379) mRNA; test: qPCR analysis of P-glycoprotein mRNA expression after dsRNA treatment; conditions: vs water
Experimental: as §1
Total RNA was extracted from groups of five Ae. aegypti fourth instar larvae and early adult male/female Ae. aegypti, using TRIzol (Invitrogen, Carlsbad, Calif., USA) according to the manufacturer's instructions. […]
as §2, with “template.” for “template. The qPCR reactions were performed using SYBR® Green PCR Master Mix (Applied Biosystems) following the manufacturer's instructions.”

[4] = test system: Ae. aegypti Rockefeller strain; test: Oviposition assay after larval dsRNA soaking plus feeding; conditions: larvae soaked 24 h in 0.5 μg/μL dsRNA, fed twice with agarose plug containing dsRNA; 15 engorged females per cage; vs water control
Experimental: FIG. 12 is a flowchart illustration depicting introduction of dsRNA into mosquito larvae via soaking with different doses of “naked” dsRNA plus additional larvae feeding with food-containing dsRNA. Step a) 100 larvae from A. aegypti Rockefeller strain (3rd instar) were soaked for 24 hours with the respective dsRNAs (concentration range from 0.02-0.5 μg/μL) or only in water and were then fed 2 times with food plus agarose 2% containing dsRNA until they reach adult stage (Step b). Step c) The adults arising were allowed to copulate for 3-5 days. Step d) mosquitoes were fed with defibrinated sheep blood. Step e) after blood feeding 15 fully-engorged females were transferred into 3 small cages to be assayed for oviposition. Step f) the total number of laid eggs and the percentage of hatched eggs were counted. FIGS. 13A-B are graphs illustrating larvae from Ae. aegypti Rockefeller strain (3rd instar) soaked for 24 hours in 0.5 μg/μL of Aubergine (Aub) or Argonaute-3 (Ago) dsRNAs or water only. […] (FIG. 13A) The total number of laid eggs and the percentage of hatched eggs were counted (FIG. 13B). […]
(§3) Five days after the blood meal, an ovipositon cup was place inside each cage containing 15 females to allow the females to lay their eggs. […] The number of eggs laid was counted and used to check the viability and egg hatching rate.

[5] = test system: Ae. aegypti Rockefeller strain; test: Egg hatching rate after larval dsRNA soaking plus feeding; conditions: larvae soaked 24 h in 0.5 μg/μL dsRNA, fed twice with agarose plug containing dsRNA; vs water control
Experimental: FIG. 12 is a flowchart illustration depicting introduction of dsRNA into mosquito larvae via soaking with different doses of “naked” dsRNA plus additional larvae feeding with food-containing dsRNA. Step a) 100 larvae from A. aegypti Rockefeller strain (3rd instar) were soaked for 24 hours with the respective dsRNAs (concentration range from 0.02-0.5 μg/μL) or only in water and were then fed 2 times with food plus agarose 2% containing dsRNA until they reach adult stage (Step b). Step c) The adults arising were allowed to copulate for 3-5 days. Step d) mosquitoes were fed with defibrinated sheep blood. Step e) after blood feeding 15 fully-engorged females were transferred into 3 small cages to be assayed for oviposition. Step f) the total number of laid eggs and the percentage of hatched eggs were counted. […] (FIG. 13A) The total number of laid eggs and the percentage of hatched eggs were counted (FIG. 13B). […]
as §3
To check the viability of the eggs the oviposition paper were kept to dry and embrionate for a period minimum of 5 days. […] The hatching rate (HR) for each treatment were calculated as follow: HR=total number of hatched larvae/total number of eggs oviposited). […]

With “sodium channel dsRNA: dsRNA targeting Ae. aegypti sodium channel (AAEL008297), SEQ ID NO: 1825” the “susceptibility of adult mosquitoes to deltamethrin (mortality rate)” value ([1]; 3rd instar larvae soaked 24 h in 0.5 μg/μL naked dsRNA vs water, adult females exposed to deltamethrin 0.5 μg/bottle) was “increased susceptibility”, the “susceptibility of adult mosquitoes to deltamethrin (mortality rate)” value ([1]; 3rd instar larvae soaked 24 h in 0.5 μg/μL naked dsRNA vs water, adult females exposed to deltamethrin 0.5 μg/bottle, listed as dsRNA against sodium channel) was “increased substantially the susceptibility” and the “susceptibility of adult mosquitoes to deltamethrin (mortality rate)” value ([1]; larvae soaked 24 h in 0.5 μg/μL dsRNA, then fed 4 times with food-containing dsRNA, adult females, deltamethrin 0.5 μg/bottle) was “increased susceptibility”. The “susceptibility of adult mosquitoes to deltamethrin (mortality rate)” value ([1]; larvae soaked 24 h in 0.5 μg/μL dsRNA, then fed 4 times with food-containing dsRNA, adult females, deltamethrin 0.5 μg/bottle, listed as dsRNA against sodium channel) was “increased the susceptibility”, the “sodium channel mRNA expression level” value ([2]; adult female mosquitoes soaked as larvae, collected before deltamethrin treatment, vs water) was “decreased expression” and the “sodium channel mRNA expression level” value ([2]; dead female mosquitoes collected after exposure to deltamethrin, compared to water-treated mosquitoes) was “striking decrease”. The “sodium channel mRNA levels” value ([2]; larvae soaked 24 h in dsRNA, 24 and 48 hours after the end of dsRNA treatment, vs water) was “decreased mRNA levels”.

B1: Cytochrome p450 (CYP9J26): dsRNA targeting Cytochrome p450 (CYP9J26, JF924909.1), SEQ ID NO: 1824 (nucleic acid)
chain: CTTCAACGACTTCGTCCGATCAATTTACAACAAATATCCTGGAGTGAAGGTTTTCGGAATGTTCGAGACGATCACGCCGTTCTTCGTGATTCGCGATCCGGAGTTGATCAAGCAGATCGGCATCAAGGATTTCGATCACTTCGTTGACCACCGTCCGACGTTCGGACTGGACGATGAAACGGCGGAGCATCCGAAGGCGCTGTTCCGCAAGACGCTGTTCTCGATGACCGGTCAACGGTGGAAGGAGATGCGCGCTACGCTGAGTCCGGCTTTTACCGGCAGTAAGATGCGACAGATGTTCTCGCTGATGAGCGAATGCTGCGACGAAATGATGAAGCACTACCTGGACAAGGCGAAGGGCACGGGAAGGGTGGAAGTCGAAATGAAGGACTTGCTGAGTCGAATCACTATCAATGTGATTGCGTCGTGTGCTTTTGGAATCAAGGTGGAC
modifications: double stranded RNA
For B1, the “susceptibility of adult mosquitoes to deltamethrin (mortality rate)” value ([1]; larvae soaked 24 h in 0.1 μg/μL dsRNA, then fed 4 times with food-containing dsRNA, adult females, deltamethrin 0.5 μg/bottle, first 15 minutes of contact) was “more sensitive” and the “susceptibility of adult mosquitoes to deltamethrin (mortality rate)” value ([1]; larvae soaked 24 h in 0.1 μg/μL dsRNA, then fed 4 times with food-containing dsRNA, adult females, deltamethrin 0.5 μg/bottle, first 15 minutes of contact, listed as CYP9J29 dsRNA) was “affects the susceptibility”.

B2: PgP: dsRNA targeting P-glycoprotein (AAEL010379), SEQ ID NO: 1822 (nucleic acid)
chain: TGGAAAAGTTGACATTGACGGGATCACGACAACTGATTTCCAGCTTGGCCGCATACGTTCACAAATGGGTCTCGTATCGCAAGAACCTGTTCTGTTTGATCGCACCATCGCGGAAAATATTGCTTATGGTGACAACACTCGCGAGATAAGCATGCCGGAGATAATCGAGGCATCCAAAATGGCAAACATTCACGAATTCATCGTCAATCTACCGAAGGGGTATGACACTAGCCTAGGAACCAAAGGAGCTCAATTGTCTGGTGGCCAAAAGCAACGTATTGCTATAGCTCGTGCTTTGGTTAGAAATCCACGAATCC
modifications: double stranded RNA
For B2, the “PgP mRNA expression” value ([3]; adult mosquitoes soaked with dsRNA as larvae) was “reached normal levels” and the “PgP mRNA levels” value ([3]; larvae soaked 24 h in dsRNA, 24 and 48 hours after the end of dsRNA treatment) was “decreased mRNA levels”.

B3: Aub: dsRNA targeting PIWI protein Aub (AAEL007698), SEQ ID NO: 1858 (nucleic acid)
chain: TCTTCTCCACCACAGCCAATGGCGTACAGGCTGGAGAACAGGCAGATTGGACGGCCCATTTCCGTAACAATCCCATGTTCGCTACGGTGCGGTTGACGCGATGGTATTTGATCGTACCGAACCGGGCTTCACGTGAGGCCAACGATTTCCTGGGCTGCATGATTCAAGCCGCACGCGGTATGCGATTTGAGATTAGTAACTGTGAGGTGGTCACCATTCCGGACGACAACCCAGGTACCTATGTGCGAACATTGGACAATCTGCTGAATAAGGACCCGCAGTTGGTGATGTGCGTCGTGACCAACAATAAGGCCGATCGGTACACCGCCATCAAGAAGAAATGTTGCGTTGATCGTGCCATCCCAACGCAAGTCATGGTACAAAAAACGATCACACCAAAGGGTGGTAATGTACGAACACTCATGTCCGTG
modifications: double stranded RNA
In the case of B3, the “oviposition rate (total number of laid eggs)” value [4] is reported as “no difference” and the “number of hatched eggs (hatchability)” value [5] is reported as 50%.
